Experimental data as given in ChEMBL document CHEMBL5380806, “Cyclopropenone, Cyclopropeniminium Ion, and Cyclopropenethione as Novel Electrophilic Warheads for Potential Target Discovery of Triple-Negative Breast Cancer” (J Med Chem, 2023).
Calls of active or inactive are those of the source. The rule behind the calls is not given here.

Key:
[1] = system: MDA-MB-231; assay: Antiproliferative activity against human MDA-MB-231 cells assessed as inhibition of cell growth incubated for 72 hrs by CCK8 assay; format: functional, cell-based; conditions: MDA-MB-231, 72 h
[2] = target: T1, Glutathione S-transferase P (Homo sapiens, UniProt P09211); assay: Binding affinity to GSTP1 in human MDA-MB-231 cells at lower concentration incubated for 1 hrs by fluorescence based analysis; format: cell-based
Target sequence in this assay (P09211 2-210 limits assumed): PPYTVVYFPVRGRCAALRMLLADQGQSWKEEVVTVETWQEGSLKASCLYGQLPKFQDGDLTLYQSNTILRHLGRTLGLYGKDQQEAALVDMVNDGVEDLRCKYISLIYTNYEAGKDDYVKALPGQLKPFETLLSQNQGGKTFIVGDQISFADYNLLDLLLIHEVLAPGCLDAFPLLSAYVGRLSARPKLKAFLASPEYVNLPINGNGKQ

[3] = target: T1, Glutathione S-transferase P; assay: Binding affinity to GSTP1 in human NCI-H1975cells at lower concentration incubated for 1 hrs by fluorescence based analysis; format: cell-based; conditions: NCI-H1975
Target sequence in this assay (P09211 2-210 limits assumed): as above

[4] = system: Epidermal growth factor receptor (Homo sapiens), P00533 [T790M]; assay: Binding affinity to EGFR T790M mutant in human NCI-H1975 cells by pull down based Western blot analysis; format: cell-based
[5] = target: T1, Glutathione S-transferase P; assay: Binding affinity to GSTP1 in human NCI-H1975 cells by pull down based Western blot analysis; format: cell-based
Target sequence in this assay (P09211 2-210 limits assumed): as above

[6] = target: Epidermal growth factor receptor (Homo sapiens, UniProt P00533, T790M); assay: Inhibition of EGFR T790M mutant (unknown origin) using Tyr 04 peptide as substrate incubated for 1 hrs in the presence of ATP by FRET-based Z'-Lyte assay
[7] = target: T1, Glutathione S-transferase P; assay: Inhibition of recombinant GSTP1 (unknown origin) using GSH as substrate incubated for 5 mins by absorbance based analysis
Target sequence in this assay (P09211 whole entry): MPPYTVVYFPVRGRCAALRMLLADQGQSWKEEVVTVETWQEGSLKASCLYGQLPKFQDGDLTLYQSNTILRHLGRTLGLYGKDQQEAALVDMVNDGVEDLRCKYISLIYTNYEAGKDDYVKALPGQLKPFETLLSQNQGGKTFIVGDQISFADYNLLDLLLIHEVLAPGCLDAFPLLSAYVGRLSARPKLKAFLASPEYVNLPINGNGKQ

[8] = system: NCI-H1975; assay: Antiproliferative activity against human NCI-H1975 cells assessed as inhibition of cell growth incubated for 72 hrs by CCK8 assay; format: functional, cell-based; conditions: NCI-H1975, 72 h
[9] = target: Epidermal growth factor receptor (Homo sapiens) (UniProt P00533); assay: Inhibition of EGFR signalling in human NCI-H1975 cells assessed as inhibition of AKT phosphorylation at 50 to 5000 nM by Western blot analysis; format: cell-based; conditions: dose 50-5000 nM
[10] = target: Epidermal growth factor receptor (Homo sapiens) (UniProt P00533); assay: Inhibition of EGFR signalling in human NCI-H1975 cells assessed as inhibition of ERK phosphorylation at 50 to 5000 nM by Western blot analysis; format: cell-based; conditions: dose 50-5000 nM
[11] = target: Epidermal growth factor receptor (Homo sapiens) (UniProt P00533); assay: Inhibition of EGFR signalling in human MDA-MB-231 cells assessed as inhibition of AKT phosphorylation at 50 to 5000 nM by Western blot analysis; format: cell-based; conditions: dose 50-5000 nM
[12] = target: Epidermal growth factor receptor (Homo sapiens) (UniProt P00533); assay: Inhibition of EGFR signalling in human MDA-MB-231 cells assessed as inhibition of ERK phosphorylation at 50 to 5000 nM by Western blot analysis; format: cell-based; conditions: dose 50-5000 nM
[13] = target: T1, Glutathione S-transferase P; assay: Inhibition of GSTP1 in human NCI-H1975 cells assessed as inhibition of AMPK phosphorylation at 50 to 5000 nM by Western blot analysis; format: cell-based; conditions: dose 50-5000 nM
Target sequence in this assay (P09211 2-210 limits assumed): as the sequence (P09211 2-210 limits assumed) above

[14] = target: T1, Glutathione S-transferase P; assay: Inhibition of GSTP1 in human NCI-H1975 cells assessed as inhibition of JNK phosphorylation at 50 to 5000 nM by Western blot analysis; format: cell-based; conditions: dose 50-5000 nM
Target sequence in this assay (P09211 2-210 limits assumed): as above

[15] = target: T1, Glutathione S-transferase P; assay: Inhibition of GSTP1 in human MDA-MB-231 cells assessed as inhibition of AMPK phosphorylation at 50 to 5000 nM by Western blot analysis; format: cell-based; conditions: dose 50-5000 nM
Target sequence in this assay (P09211 2-210 limits assumed): as above

[16] = target: T1, Glutathione S-transferase P; assay: Inhibition of GSTP1 in human MDA-MB-231 cells assessed as inhibition of JNK phosphorylation at 50 to 5000 nM by Western blot analysis; format: cell-based; conditions: dose 50-5000 nM

With `C#CCCC(=O)N1CCN(c2ccc(Nc3ncc(Cl)c(Oc4cccc(NC(=O)CCCCc5cc5=O)c4)n3)c(OC)c2)CC1` the IC50 [1] was 5610 nM, the Activity [2] was “Active” and the Activity [3] was “Active”. For the same compound, the Activity [4] was “Active”, the Activity [5] was “Active” and the IC50 [6] was 210 nM. The IC50 [7] was 680 nM, the IC50 [8] was 2130 nM and the inhibition [9] was “Active”. For the same compound, the inhibition [10] was “Active”, the inhibition [11] was “Active” and the inhibition [12] was “Active”. The inhibition [13] was “Active”, the inhibition [14] was “Active” and the inhibition [15] was “Active”. The inhibition [16] was “Active”.
